Laboratory results from EP0624315B1, “Diaryl(pyridinio and isoquinolinio) boron fungicidal agents” (AMERICAN CYANAMID COMPANY, priority 1993, dated 1994).

What was measured:
Venturia inaequalis = test: In vivo fungicidal evaluation, Apple Scab; settings: 200 ppm, host plants sprayed, dried, then inoculated; note: ranges in brackets are in %
Plasmopara viticola = test: In vivo fungicidal evaluation, Grape Downy Mildew; settings: 200 ppm, host plants sprayed, dried, then inoculated; note: ranges in brackets are in %
Botrytis cinerea = test: In vivo fungicidal evaluation, Pepper Botrytis; settings: 200 ppm, host plants sprayed, dried, then inoculated; note: ranges in brackets are in %
Pyricularia oryzae = format: in vivo; settings: 200 ppm, host plants sprayed, dried, then inoculated
Cercospora beticola = test: In vivo fungicidal evaluation, Sugar Beet Cercospora; settings: 200 ppm, host plants sprayed, dried, then inoculated; note: ranges in brackets are in %
Alternaria solani = test: In vivo fungicidal evaluation, Tomato Early Blight; settings: 200 ppm, host plants sprayed, dried, then inoculated; note: ranges in brackets are in %
[1] = tested on: Puccinia recondita f. sp. tritici; test: In vivo fungicidal evaluation, Wheat Leaf Rust; settings: 200 ppm, host plants sprayed, dried, then inoculated; note: ranges in brackets are in %
[2] = tested on: Erysiphe graminis f. sp. tritici; test: In vivo fungicidal evaluation, Wheat Powdery Mildew; settings: 200 ppm, host plants sprayed, dried, then inoculated; note: ranges in brackets are in %
[3] = tested on: Fusarium oxysporum f. sp. cucumerinum (Fusoxc); test: In vitro fungicidal evaluation, mycelial growth inhibition in nutrient broth; format: cell-based; settings: 25 ppm, 3-4 days at 21°C, rated visually; note: ranges in brackets are in %
Protocol: (§1) Test compounds are dissolved or suspended in acetone and dispersed into cell well plates containing a suspension of ground fungal mycelia in a nutrient broth. Assay plates are incubated for 3-4 days at 21°C. Growth inhibition is measured visually and is rated using the following scale:
(§2) Untreated controls, solvent blanks and reference standards are included in each test.
(§3) Assay fungi include the plant pathogens, Pythium ultimum (Pythul); Rhizoctonia solani (Rhizso); Fusarium oxysporum f. sp. cucumerinum (Fusoxc); and Pseudocercosporella herpotrichoides (Psdche).
(§4) When more than one test is run, the data are averaged. The compouds evaluated are reported by compound number given in Example 5.

[4] = tested on: Pseudocercosporella herpotrichoides (Psdche); test: as above; format: cell-based; settings: 25 ppm, 3-4 days at 21°C, rated visually; note: ranges in brackets are in %
Protocol: as §1, §2, §3, §4

Pythium ultimum (Pythul) = test: as above; format: cell-based; settings: 25 ppm, 3-4 days at 21°C, rated visually; note: ranges in brackets are in %
Protocol: as §1, §2, §3, §4

[5] = tested on: Rhizoctonia solani (Rhizso); test: as above; format: cell-based; settings: 25 ppm, 3-4 days at 21°C, rated visually; note: ranges in brackets are in %
Protocol: as §1, §2, §3, §4

Compound	AS (Apple Scab) disease control rating (Venturia inaequalis)	GDM (Grape Downy Mildew) disease control rating (Plasmopara viticola)	PB (Pepper Botrytis) disease control rating (Botrytis cinerea)	RB (Rice Blast) disease control rating (Pyricularia oryzae)	SBC (Sugar Beet Cercospora) disease control rating (Cercospora beticola)	TEB (Tomato Early Blight) disease control rating (Alternaria solani)	WLR (Wheat Leaf Rust) disease control rating [1]	WPM (Wheat Powdery Mildew) disease control rating [2]	FUSOXC growth inhibition rating [3]	PSDCHE growth inhibition rating [4]	PHTHUL growth inhibition rating (Pythium ultimum (Pythul))	RHIZSO growth inhibition rating [5]
Bis(p-fluorophenyl)methyl(5-nitroisoquinolinio)boron [Compound 15]	9 (100)	0 (0)	9 (100)	3 (30 - 44)	7 (90 - 95)	4 (45 - 59)	0 (0)	0 (0)	9 (100)	9 (100)	9 (100)	9 (100)
Bis(p-fluorophenyl)(isoquinolinio)methylboron [Compound 13]	7 (90 - 95)	9 (100)	9 (100)	7 (90 - 95)	8 (96 - 99)	8 (96 - 99)	7 (90 - 95)	8 (96 - 99)	9 (100)	9 (100)	9 (100)	9 (100)
Butoxy(3-methylpyridinio)diphenylboron [Compound 10]	0 (0)	3 (30 - 44)	6 (75 - 89)	0 (0)	0 (0)	0 (0)	0 (0)	0 (0)	9 (100)	7 (90 - 99)	9 (100)	9 (100)
(4-Cyanopyridinio)methyldiphenylboron [Compound 16]	9 (100)	9 (100)	8 (96 - 99)	9 (100)	8 (96 - 99)	8 (96 - 99)	–	0 (0)	7 (90 - 99)	9 (100)	7 (90 - 99)	7 (90 - 99)
Chloro(isoquinolinio)di-p-tolylboron [Compound 12]	0 (0)	0 (0)	0 (0)	0 (0)	7 (90 - 95)	0 (0)	0 (0)	0 (0)	7 (90 - 99)	5 (60 - 89)	7 (90 - 99)	7 (90 - 99)
Hydroxy(3-butylpyridinio)diphenylboron [Compound 7]	6 (75 - 89)	0 (0)	0 (0)	6 (75 - 89)	0 (0)	0 (0)	5 (60 - 74)	5 (60 - 74)	9 (100)	0 (0)	9 (100)	9 (100)
Hydroxy(4-isopropylpyridinio)diphenylboron [Compound 8]	0 (0)	4 (45 - 59)	0 (0)	6 (75 - 89)	0 (0)	0 (0)	0 (0)	0 (0)	9 (100)	0 (0)	9 (100)	7 (90 - 99)
CC(=O)c1cc[n+]([B-](C)(c2ccccc2)c2ccccc2)cc1 [Compound 19, (4-Acetylpyridinio)methyldiphenylboron]	9 (100)	9 (100)	9 (100)	8 (96 - 99)	9 (100)	8 (96 - 99)	–	8 (96 - 99)	7 (90 - 99)	9 (100)	7 (90 - 99)	7 (90 - 99)
C[B-](c1ccccc1)(c1ccccc1)[n+]1ccc(-c2ccccc2)cc1 [Compound 17, (4-Phenylpyridinio)methyldiphenylboron]	9 (100)	9 (100)	9 (100)	8 (96 - 99)	8 (96 - 99)	9 (100)	–	8 (96 - 99)	7 (90 - 99)	7 (90 - 99)	0 (0)	5 (60 - 89)
Butoxy(4-methylpyridinio)diphenylboron [Compound 9]	0 (0)	0 (0)	6 (75 - 89)	0 (0)	0 (0)	0 (0)	0 (0)	0 (0)	9 (100)	0 (0)	9 (100)	0 (0)
C[B-](c1ccccc1)(c1ccccc1)[n+]1ccc(C(C)(C)C)cc1 [Compound 20, (4-Tert-butyl-pyridinio)methyldiphenylboron]	9 (100)	9 (100)	9 (100)	8 (96 - 99)	9 (100)	8 (96 - 99)	–	7 (90 - 95)	7 (90 - 99)	7 (90 - 99)	7 (90 - 99)	7 (90 - 99)
